Tests used:
[1] = Crystal
[2] = Molar enthalpy of transition or fusion; details: Crystal
[3] = molar heat capacity at saturation pressure

CCCCCO [pentan-1-ol]
Details | Molar enthalpy of transition or fusion [kJ/mol] | Triple point temperature [K]
[1] | – | 195.6
[2] | 10.51 | –

[3]
Details | molar heat capacity [J/K/mol]
84.35 K, Crystal | 65.89
85.06 K, Crystal | 66.25
86.86 K, Crystal | 67.27
89.74 K, Crystal | 68.87
92.58 K, Crystal | 70.39
94.72 K, Crystal | 71.43
95.39 K, Crystal | 71.74
95.42 K, Crystal | 71.88
97.19 K, Crystal | 72.64
98.27 K, Crystal | 73.33
100.1 K, Crystal | 74.14
101.12 K, Crystal | 74.67
102.99 K, Crystal | 75.73
103.99 K, Crystal | 76.36
105.87 K, Crystal | 77.16
106.86 K, Crystal | 77.84
108.76 K, Crystal | 78.64
109.74 K, Crystal | 79.23
111.65 K, Crystal | 79.96
112.62 K, Crystal | 80.53
114.54 K, Crystal | 81.27
115.51 K, Crystal | 81.81
117.45 K, Crystal | 82.55
118.41 K, Crystal | 83.11
120.35 K, Crystal | 83.59
121.31 K, Crystal | 84.26
123.26 K, Crystal | 85.21
124.22 K, Crystal | 85.78
126.17 K, Crystal | 86.52
127.13 K, Crystal | 87.05
129.09 K, Crystal | 87.81
130.04 K, Crystal | 88.35
132 K, Crystal | 89.11
132.96 K, Crystal | 89.63
134.92 K, Crystal | 90.35
135.88 K, Crystal | 90.9
137.85 K, Crystal | 91.65
138.8 K, Crystal | 92.19
140.77 K, Crystal | 92.89
141.73 K, Crystal | 93.48
143.7 K, Crystal | 94.19
144.65 K, Crystal | 94.77
146.63 K, Crystal | 95.55
147.58 K, Crystal | 96.12
149.56 K, Crystal | 96.87
150.51 K, Crystal | 97.45
152.49 K, Crystal | 98.21
153.44 K, Crystal | 98.8
155.42 K, Crystal | 99.58
156.38 K, Crystal | 100.2
158.36 K, Crystal | 101.02
159.31 K, Crystal | 101.61
161.29 K, Crystal | 102.48
162.24 K, Crystal | 103.05
164.23 K, Crystal | 103.98
165.18 K, Crystal | 104.56
167.16 K, Crystal | 105.55
168.11 K, Crystal | 106.11
170.08 K, Crystal | 107.17
171.04 K, Crystal | 107.72
173.01 K, Crystal | 108.87
173.97 K, Crystal | 109.43
175.94 K, Crystal | 110.7
176.89 K, Crystal | 111.3
178.85 K, Crystal | 112.7
179.8 K, Crystal | 113.33
181.73 K, Crystal | 115.01
182.67 K, Crystal | 115.64
184.57 K, Crystal | 118.07
185.5 K, Crystal | 118.77
187.36 K, Crystal | 123.84
188.28 K, Crystal | 124.56
198.65 K, Liquid | 163.65
199.38 K, Liquid | 163.9
200.99 K, Liquid | 163.99
201.72 K, Liquid | 164.4
203.32 K, Liquid | 164.43
204.05 K, Liquid | 164.85
205.65 K, Liquid | 164.91
206.37 K, Liquid | 165.31
207.96 K, Liquid | 165.4
208.68 K, Liquid | 165.79
210.27 K, Liquid | 165.93
210.99 K, Liquid | 166.35
212.58 K, Liquid | 166.46
213.29 K, Liquid | 166.86
214.87 K, Liquid | 167.08
215.58 K, Liquid | 167.46
217.16 K, Liquid | 167.65
217.86 K, Liquid | 168.06
219.44 K, Liquid | 168.24
220.14 K, Liquid | 168.68
221.71 K, Liquid | 168.88
222.41 K, Liquid | 169.28
223.98 K, Liquid | 169.49
224.67 K, Liquid | 169.98
226.24 K, Liquid | 170.19
226.92 K, Liquid | 170.74
228.49 K, Liquid | 170.97
229.17 K, Liquid | 171.45
230.73 K, Liquid | 171.69
231.4 K, Liquid | 172.08
232.96 K, Liquid | 172.37
233.63 K, Liquid | 172.91
235.19 K, Liquid | 173.18
235.85 K, Liquid | 173.67
237.41 K, Liquid | 174
238.06 K, Liquid | 174.45
239.61 K, Liquid | 174.8
240.27 K, Liquid | 175.24
241.81 K, Liquid | 175.57
242.46 K, Liquid | 176.08
244 K, Liquid | 176.53
244.65 K, Liquid | 177.02
246.19 K, Liquid | 177.41
246.83 K, Liquid | 177.9
248.36 K, Liquid | 178.37
249 K, Liquid | 178.81
250.53 K, Liquid | 179.33
251.16 K, Liquid | 179.81
252.69 K, Liquid | 180.35
253.31 K, Liquid | 180.73
254.84 K, Liquid | 180.78
255.46 K, Liquid | 181.29
256.98 K, Liquid | 181.89
257.6 K, Liquid | 182.33
259.12 K, Liquid | 182.97
259.72 K, Liquid | 183.42
261.25 K, Liquid | 184.11
261.84 K, Liquid | 184.56
263.36 K, Liquid | 185.17
263.95 K, Liquid | 185.84
265.47 K, Liquid | 186.38
266.05 K, Liquid | 186.93
267.57 K, Liquid | 187.55
268.14 K, Liquid | 188.12
269.66 K, Liquid | 188.85
270.23 K, Liquid | 189.24
271.74 K, Liquid | 190.03
272.3 K, Liquid | 190.52
273.81 K, Liquid | 190.93
274.36 K, Liquid | 191.79
275.87 K, Liquid | 192.5
276.41 K, Liquid | 193.06
277.92 K, Liquid | 193.85
278.46 K, Liquid | 194.4
279.97 K, Liquid | 195.18
280.49 K, Liquid | 195.74
282 K, Liquid | 196.61
282.51 K, Liquid | 197.04
284.02 K, Liquid | 197.96
284.53 K, Liquid | 198.45
286.03 K, Liquid | 199.37
286.53 K, Liquid | 199.91
288.04 K, Liquid | 200.78
288.52 K, Liquid | 201.35
290.03 K, Liquid | 202.3
290.5 K, Liquid | 202.81
292.01 K, Liquid | 203.82
292.48 K, Liquid | 204.11
293.99 K, Liquid | 205.24
294.44 K, Liquid | 205.79
295.95 K, Liquid | 206.87
296.39 K, Liquid | 207.42
297.91 K, Liquid | 208.52
298.34 K, Liquid | 208.88
299.85 K, Liquid | 210.01
300.27 K, Liquid | 210.28
300.3 K, Liquid | 209.4
300.6 K, Liquid | 209.89
300.81 K, Liquid | 210.54
301.09 K, Liquid | 210.46
301.72 K, Liquid | 211.03
302.2 K, Liquid | 211.81
303.67 K, Liquid | 212.74
304.12 K, Liquid | 213.39
305.6 K, Liquid | 214.44
306.03 K, Liquid | 215.06
307.52 K, Liquid | 216.02
307.94 K, Liquid | 216.66
309.43 K, Liquid | 217.84
309.83 K, Liquid | 218.39
311.32 K, Liquid | 219.47
311.72 K, Liquid | 219.98
313.21 K, Liquid | 221.03
313.59 K, Liquid | 221.54
315.09 K, Liquid | 222.83
315.46 K, Liquid | 223.3
316.96 K, Liquid | 224.55
317.31 K, Liquid | 224.93
318.82 K, Liquid | 226.26
319.16 K, Liquid | 226.53
320.67 K, Liquid | 228
320.99 K, Liquid | 228.31
322.52 K, Liquid | 229.67
322.82 K, Liquid | 229.96
324.36 K, Liquid | 231.42
324.65 K, Liquid | 231.73
326.19 K, Liquid | 233.09
326.46 K, Liquid | 233.41
328.01 K, Liquid | 234.81
328.27 K, Liquid | 235
329.82 K, Liquid | 236.6
330.07 K, Liquid | 236.82
331.62 K, Liquid | 238.27
331.85 K, Liquid | 238.73
333.42 K, Liquid | 239.94
333.63 K, Liquid | 240.3
335.2 K, Liquid | 241.58
335.4 K, Liquid | 241.97
336.98 K, Liquid | 243.24
337.16 K, Liquid | 243.65
338.75 K, Liquid | 244.92
338.92 K, Liquid | 245.3
340.51 K, Liquid | 246.6
340.66 K, Liquid | 246.9
342.27 K, Liquid | 248.02
342.4 K, Liquid | 248.57
344.02 K, Liquid | 249.71
344.13 K, Liquid | 250.3
345.76 K, Liquid | 251.26
345.85 K, Liquid | 252.05
347.5 K, Liquid | 252.83
347.57 K, Liquid | 253.58
349.23 K, Liquid | 254.25
349.27 K, Liquid | 255.13
350.95 K, Liquid | 255.52
350.97 K, Liquid | 256.62
352.66 K, Liquid | 258.17
352.67 K, Liquid | 256.89
354.35 K, Liquid | 259.96
354.38 K, Liquid | 259.82
356.02 K, Liquid | 261.44
356.07 K, Liquid | 261.38
357.7 K, Liquid | 262.72
357.76 K, Liquid | 262.85
359.36 K, Liquid | 264.29
359.43 K, Liquid | 264.36
361.02 K, Liquid | 265.62
361.1 K, Liquid | 265.85
362.67 K, Liquid | 266.89
362.77 K, Liquid | 267.17
364.32 K, Liquid | 268.43
364.43 K, Liquid | 268.78
365.96 K, Liquid | 269.86
366.08 K, Liquid | 270.13
367.59 K, Liquid | 270.92
367.73 K, Liquid | 271.33
369.23 K, Liquid | 271.93
369.37 K, Liquid | 272.76
370.86 K, Liquid | 272.95
371.01 K, Liquid | 274.05
372.64 K, Liquid | 275.14
374.27 K, Liquid | 276.38
375.89 K, Liquid | 277.43
377.52 K, Liquid | 278.66
379.14 K, Liquid | 279.32
380.76 K, Liquid | 280.36

CCCO [propan-1-ol]
Details | Molar enthalpy of transition or fusion [kJ/mol] | Triple point temperature [K]
[1] | – | 148.71
[2] | 5.4 | –

[3], Glass
Details | molar heat capacity [J/K/mol]
84.71 K | 55.24
86.52 K | 56.57
89.38 K | 58.64
92.19 K | 61.1
94.96 K | 66.41
